From patent US6410529B1, “Phenyl urea and phenyl thiourea derivatives as HFGAN72 antagonists” (SmithKline Beecham p.l.c., priority 1997, dated 2002)
Where a name gives a salt, the structure may show the parent alone.

Target: T1, human HFGAN72 receptor (Homo sapiens, UniProt O43613)
T1 construct: expressed in transfected cells; host or cells: HEK293
T1 sequence (O43613 1-425): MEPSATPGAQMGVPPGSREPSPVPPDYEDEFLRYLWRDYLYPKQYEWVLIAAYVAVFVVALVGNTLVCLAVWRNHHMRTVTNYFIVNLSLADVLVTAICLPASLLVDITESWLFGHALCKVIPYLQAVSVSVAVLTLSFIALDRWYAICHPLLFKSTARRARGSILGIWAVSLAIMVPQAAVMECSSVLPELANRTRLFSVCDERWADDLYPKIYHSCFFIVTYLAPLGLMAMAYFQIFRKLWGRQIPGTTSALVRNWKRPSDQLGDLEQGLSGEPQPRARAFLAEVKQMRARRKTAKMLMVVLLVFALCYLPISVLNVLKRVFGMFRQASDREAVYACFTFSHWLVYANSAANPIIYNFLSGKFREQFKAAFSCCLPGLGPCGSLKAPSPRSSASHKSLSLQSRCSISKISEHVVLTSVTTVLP
Experiment: HFGAN72 receptor antagonist activity, FLIPR intracellular calcium assay against human Lig 72A
Assay type: cell-based
Conditions: HEK293 cells expressing human HFGAN72 receptor; against 3.0 nM human Lig 72A; Kb=IC50/(1+([3/EC50])
Protocol: The HFGAN72 receptor antagonist activity of the compounds of formula (I), including those compounds in which X and Y both represent CH and without provisos a)-f), was determined in accordance with the following experimental method.
HEK293 cells expressing the human HFGAN72 receptor were grown in cell medium (MEM medium with Earl's salts) containing 2 mM L-Glutamine, 0.4 mg/mL G418 Sulphate from GIBCO BRL and 10% heat inactivated fetal calf serum from Gibco BRL. The cells were seeded at 20,000 cells/100 μl/well into 96-well black clear bottom sterile plates from Costar which had been pre-coated with 10 μg/well of poly-L-lysine from SIGMA. The seeded plates were incubated overnight at 37° C. in 5% CO2.
Agonists were prepared as 1 mM stocks in water:DMSO (1:1). EC50 values (the concentration required to produce 50% maximal response) were estimated using 11× half log unit dilutions (Biomek 2000, Beckman) in Tyrode's buffer containing probenecid (10 mM HEPES with 145 mM NaCl, 10 mM glucose, 2.5 mM KCl, 1.5 mM CaCl2, 1.2 mM MgCl2 and 2.5 mM probenecid; pH7.4). […] On the day of assay 50 μl of cell medium containing probenecid (Sigma) and Fluo3AM (Texas Fluorescence Laboratories) was added (Quadra, Tomtec) to each well to give final concentrations of 2.5 mM and 4 μM, respectively. […] Cell plates were then transferred to the Fluorescent Imaging Plate Reader (FLIPR, Molecular Devices) instrument and maintained at 37° C. in humidified air. […] Agonists were added (by the FLIPR) after 20 sec (during continuous reading). From each well, peak fluorescence was determined over the whole assay period and the mean of readings 1-19 inclusive was subtracted from this figure. The peak increase in fluorescence was plotted against compound concentration and iteratively curve fitted using a four parameter logistic fit (as described by Bowen and Jerman, 1995, TiPS, 16, 413-417) to generate a concentration effect value. Antagonist Kb values were calculated using the equation: […]
where EC50 was the potency of human Lig72A determined in the assay (in nM terms) and IC50 is expressed in molar terms.

Row | Kb [nM] | SMILES
1 | < 100 | COc1ccc(NC(=O)Nc2ccnc3ccccc23)cc1Cl [Example 31, 1-(3-Chloro-4-methoxyphenyl)-3-quinolin-4-ylurea hydrochloride]
2 | < 100 | CSc1ccc(NC(=O)Nc2ccnc3ccccc23)cc1 [Example 14, 1-(4-Methylthiophenyl)-3-quinolin-4-ylurea hydrochloride]
3 | < 100 | Cn1ccc2cc(NC(=O)Nc3ccnc4ccccc34)ccc21 [Example 1, 1-(1-Methyl-1H-indol-5-yl)-3-quinolin-4-ylurea]
